# From patent US10954252B1, “Inhibitors of human immunodeficiency virus replication” (ViiV HEALTHCARE UK (NO.5) LIMITED, priority 2017, dated 2021)
# What was measured:
# [1] = system: recombinant NL4-3 virus (nef section replaced with Renilla luciferase gene) in MT-2 cells; test: HIV cell culture assay (antiviral activity, luciferase readout); assay type: cell-based; settings: MT-2 cells infected for 4-5 days with recombinant NL4-3 luciferase virus
# Procedure, shortened: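 Serially diluted compounds were present throughout a 4-5 day infection of MT-2 cells by recombinant NL4-3 whose nef region partly encodes Renilla luciferase. Antiviral activity was taken from live-cell luciferase signal, with the 50% effective concentration fitted by the exponential median effect equation.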
# uninfected MT2 cells = test: Compound cytotoxicity, XTT-based colorimetric assay; assay type: cell-based
# Procedure, shortened: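 XTT colorimetric read-out on day 4 gave CC50 values, using MT2 cells left uninfected but otherwise handled as in the antiviral assay.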
SMILES,EC50 ([1]; Table 1a),"CC50 (uninfected MT2 cells; Table 1a, day 4, XTT)",EC50 ([1]; Table 1),"CC50 (uninfected MT2 cells; Table 1, day 4, XTT)"
"Cn1nc(NS(C)(=O)=O)c2c(Cl)ccc(-n3c([C@H](Cc4cc(F)cc(F)c4)NC(=O)Cn4nc(C(F)F)c5c4C(F)(F)[C@@H]4C[C@H]54)nc4cc(C(C)(C)S(C)(=O)=O)ccc4c3=O)c21 (mixture of isomers) [Example 208, N—((S)-1-(3-(4-chloro-1-methyl-3-(methylsulfonamido)-1H-indazol-7-yl)-7-(2-(methylsulfonyl)propan-2-yl)-4-oxo-3,4-dihydroquinazolin-2-yl)-2-(3,5-difluorophenyl)ethyl)-2-((3bS,4aR)-3-(difluoromethyl)-5,5-difluoro-3b,4,4a,5-tetrahydro-1H-cyclopropa[3,4]cyclopenta[1,2-c]pyrazol-1-yl)acetamide]",0.083 nM,> 1000 nM,–,–
"Cn1nc(NS(C)(=O)=O)c2c(Cl)ccc(-n3c([C@H](Cc4cc(F)cc(F)c4)NC(=O)Cn4nc(C(F)F)c5c4C(F)(F)[C@@H]4C[C@H]54)nc4cc(C(C)(C)C)ccc4c3=O)c21 (mixture of isomers) [Example 216, N—((S)-1-(7-(tert-Butyl)-3-(4-chloro-1-methyl-3-(methylsulfonamido)-1H-indazol-7-yl)-4-oxo-3,4-dihydroquinazolin-2-yl)-2-(3,5-difluorophenyl)ethyl)-2-((3bS,4aR)-3-(difluoromethyl)-5,5-difluoro-3b,4,4a,5-tetrahydro-1H-cyclopropa[3,4]cyclopenta[1,2-c]pyrazol-1-yl)acetamide]",0.059 nM,> 1000 nM,–,–
"O=C(Cn1nc(C(F)F)c2c1C(F)(F)[C@@H]1C[C@H]21)NC(Cc1cc(F)cc(F)c1)c1nc2ncsc2cc1-c1ccc2scnc2c1 (single isomer, unassigned) [Example 1.1]",–,–,3.1 nM,> 100000 nM
"O=C(Cn1nc(C(F)F)c2c1C(F)(F)[C@@H]1C[C@H]21)NC(Cc1cc(F)cc(F)c1)c1nc2ncsc2cc1-c1ccc2scnc2c1 (single isomer, unassigned) [Example 1.2]",–,–,2850 nM,> 33300 nM
"Cn1nc(NS(C)(=O)=O)c2c(Cl)ccc(-c3cc4scnc4nc3C(Cc3cc(F)cc(F)c3)NC(=O)Cn3nc(C(F)F)c4c3C(F)(F)[C@@H]3C[C@H]43)c21 (single isomer, unassigned) [Example 1.3]",–,–,0.3 nM,> 10000 nM
"Cn1nc(NS(C)(=O)=O)c2c(Cl)ccc(-c3cc4scnc4nc3C(Cc3cc(F)cc(F)c3)NC(=O)Cn3nc(C(F)F)c4c3C(F)(F)[C@@H]3C[C@H]43)c21 (single isomer, unassigned) [Example 1.5]",–,–,1150 nM,> 10000 nM
"Cn1nc(NS(C)(=O)=O)c2c(Cl)ccc(-c3cc4scnc4nc3C(Cc3cc(F)cc(F)c3)NC(=O)Cn3nc(C(F)F)c4c3C(F)(F)[C@@H]3C[C@H]43)c21 (single isomer, unassigned) [Example 1.6]",–,–,1780 nM,> 10000 nM
"Cc1nc2nc(C(Cc3cc(F)cc(F)c3)NC(=O)Cn3nc(C(F)F)c4c3C(F)(F)[C@@H]3C[C@H]43)c(-c3ccc(Cl)c4c(NS(C)(=O)=O)nn(C)c34)cc2s1 (single isomer, unassigned) [Example 2.2]",–,–,1150 nM,> 10000 nM
"Cc1nc2nc(C(Cc3cc(F)cc(F)c3)NC(=O)Cn3nc(C(F)F)c4c3CCC4)c(-c3ccc(Cl)c4c(NS(C)(=O)=O)nn(C)c34)cc2s1 (single isomer, unassigned) [Example 2.4, N-(1-(6-(4-chloro-1-methyl-3-(methylsulfonamido)-1H-indazol-7-yl)-2-methylthiazolo[4,5-b]pyridin-5-yl)-2-(3,5-difluorophenyl)ethyl)-2-(3-(difluoromethyl)-5,6-dihydrocyclopenta[c]pyrazol-1(4H)-yl)acetamide]",–,–,690 nM,> 10000 nM
"O=C(Cn1nc(C(F)F)c2c1C(F)(F)[C@@H]1C[C@H]21)N[C@H](Cc1cc(F)cc(F)c1)c1nc2cn[nH]c2cc1-c1ccc2scnc2c1 (single isomer, unassigned) [Example 3.1]",–,–,22 nM,42100 nM
"O=C(Cn1nc(C(F)F)c2c1C(F)(F)[C@@H]1C[C@H]21)N[C@H](Cc1cc(F)cc(F)c1)c1nc2cn[nH]c2cc1-c1ccc2scnc2c1 (single isomer, unassigned) [Example 3.2]",–,–,960 nM,12700 nM
"O=C(Cc1c[nH]c2ccc(O)cc12)NC(Cc1cc(F)cc(F)c1)c1nc2cn[nH]c2cc1-c1ccc2scnc2c1 (single isomer, unassigned) [Example 3.4, N-(1-(6-(benzo[d]thiazol-5-yl)-1H-pyrazolo[4,3-b]pyridin-5-yl)-2-(3,5-difluorophenyl)ethyl)-2-(5-hydroxy-1H-indol-3-yl)acetamide]",–,–,470 nM,83900 nM
"O=C(Cc1c[nH]c2ccc(F)cc12)NC(Cc1cc(F)cc(F)c1)c1nc2cn[nH]c2cc1-c1ccc2scnc2c1 (single isomer, unassigned) [Example 3.6, N-(1-(6-(benzo[d]thiazol-5-yl)-1H-pyrazolo[4,3-b]pyridin-5-yl)-2-(3,5-difluorophenyl)ethyl)-2-(5-fluoro-1H-indol-3-yl)acetamide]",–,–,230 nM,32600 nM
"Cn1nc(NS(C)(=O)=O)c2c(Cl)ccc(-c3cc4[nH]cnc4nc3C(Cc3cc(F)cc(F)c3)NC(=O)Cn3nc(C(F)F)c4c3C(F)(F)[C@@H]3C[C@H]43)c21 (single isomer, unassigned) [Example 4.2]",–,–,1 nM,> 10000 nM
"Cn1nc(NS(C)(=O)=O)c2c(Cl)ccc(-c3cc4[nH]ccc4nc3C(Cc3cc(F)cc(F)c3)NC(=O)Cn3nc(C(F)F)c4c3C(F)(F)[C@@H]3C[C@H]43)c21 (single isomer, unassigned) [Example 5.2]",–,–,400 nM,> 10000 nM
"Cn1nc(NS(C)(=O)=O)c2c(Cl)ccc(-c3cc4[nH]ccc4nc3C(Cc3cc(F)cc(F)c3)NC(=O)Cn3nc(C(F)F)c4c3C(F)(F)[C@@H]3C[C@H]43)c21 (single isomer, unassigned) [Example 5.3]",–,–,0.2 nM,> 10000 nM
"Cn1nc(NS(C)(=O)=O)c2c(Cl)ccc(-c3cc4[nH]ccc4nc3C(Cc3cc(F)cc(F)c3)NC(=O)Cn3nc(C(F)F)c4c3C(F)(F)[C@@H]3C[C@H]43)c21 (single isomer, unassigned) [Example 5.4]",–,–,0.2 nM,> 10000 nM
"Cn1nc(NS(C)(=O)=O)c2c(Cl)ccc(-c3cc4cn[nH]c4nc3C(Cc3cc(F)cc(F)c3)NC(=O)Cn3nc(C(F)F)c4c3C(F)(F)[C@@H]3C[C@H]43)c21 (single isomer, unassigned) [Example 6.2]",–,–,4.3 nM,> 10000 nM
"O=C(Cn1nc(C(F)F)c2c1C(F)(F)[C@@H]1C[C@H]21)NC(Cc1cc(F)cc(F)c1)c1ncc2nc[nH]c2c1-c1ccc2scnc2c1 (single isomer, unassigned) [Example 7.2]",–,–,9 nM,17500 nM
"Cn1nc(NS(C)(=O)=O)c2c(Cl)ccc(-c3c(C(Cc4cc(F)cc(F)c4)NC(=O)Cn4nc(C(F)F)c5c4C(F)(F)[C@@H]4C[C@H]54)ncc4[nH]cnc34)c21 (single isomer, unassigned) [Example 7.4]",–,–,300 nM,> 10000 nM
"Cn1nc(NS(C)(=O)=O)c2c(Cl)ccc(-c3c(C(Cc4cc(F)cc(F)c4)NC(=O)Cn4nc(C(F)F)c5c4C(F)(F)[C@@H]4C[C@H]54)ncc4[nH]cnc34)c21 (single isomer, unassigned) [Example 7.5]",–,–,1320 nM,> 10000 nM
"Cn1nc(NS(C)(=O)=O)c2c(Cl)ccc(-c3c(C(Cc4cc(F)cc(F)c4)NC(=O)Cn4nc(C(F)F)c5c4C(F)(F)[C@@H]4C[C@H]54)ncc4[nH]cnc34)c21 (single isomer, unassigned) [Example 7.6]",–,–,8.1 nM,> 10000 nM
"Cn1nc(NS(C)(=O)=O)c2c(Cl)ccc(-c3cc4ccccc4nc3C(Cc3cc(F)cc(F)c3)NC(=O)Cn3nc(C(F)F)c4c3C(F)(F)[C@@H]3C[C@H]43)c21 (single isomer, unassigned) [Example 8.2]",–,–,180 nM,> 10000 nM
"Cn1nc(NS(C)(=O)=O)c2c(Cl)ccc(-n3c([C@H](Cc4cc(F)cc(F)c4)NC(=O)Cn4nc(C(F)F)c5c4C(F)(F)[C@@H]4C[C@H]54)nc4ncccc4c3=O)c21 (single isomer, unassigned) [Example 10.40]",–,–,0.0189 nM,> 10000 nM
"Cc1ccn(CC(=O)N[C@@H](Cc2cc(F)cc(F)c2)c2nc3ncccc3c(=O)n2-c2ccc(Cl)c3c(NS(C)(=O)=O)nn(C)c23)n1 (single isomer, unassigned) [Example 47.2]",1.7 nM,> 1000 nM,–,–
"Cn1nc(NS(C)(=O)=O)c2c(Cl)ccc(-c3cc4cc[nH]c4nc3C(Cc3cc(F)cc(F)c3)NC(=O)Cn3nc(C(F)F)c4c3C(F)(F)[C@@H]3C[C@H]43)c21 (single isomer, unassigned) [Example 86]",1100 nM,> 10000 nM,–,–
"CS(=O)(=O)Nc1nn(CC(F)F)c2c(-c3cc4[nH]ncc4nc3[C@H](Cc3cc(F)cc(F)c3)NC(=O)Cn3nc(C(F)F)c4c3C(F)(F)[C@@H]3C[C@H]43)ccc(Cl)c12 (single isomer, unassigned) [Example 93]",0.099 nM,> 10000 nM,–,–
"CS(=O)(=O)Nc1nn(CC(F)(F)F)c2c(-c3cc4[nH]ncc4nc3[C@H](Cc3cc(F)cc(F)c3)NC(=O)Cn3nc(C(F)F)c4c3C(F)(F)[C@@H]3C[C@H]43)ccc(Cl)c12 (single isomer, unassigned) [Example 95]",0.094 nM,> 1000 nM,–,–
"Cc1cccc2c(=O)n(-c3ccc(Cl)c4c(NS(C)(=O)=O)nn(C)c34)c([C@H](Cc3cc(F)cc(F)c3)NC(=O)Cn3nc(C(F)F)c4c3C(F)(F)[C@@H]3C[C@H]43)nc12 (single isomer, unassigned) [Example 98]",0.747 nM,> 1000 nM,–,–
"Cn1nc(NS(C)(=O)=O)c2c(Cl)ccc(-n3c([C@H](Cc4cc(F)cc(F)c4)NC(=O)Cn4nc(C(F)F)c5c4CCC5)nc4c(F)cc(F)cc4c3=O)c21 (single isomer, unassigned) [Example 100]",0.033 nM,> 1000 nM,–,–
